The source made the active and inactive calls. The calls are words filed in the database; no cut-off is given here.
Legend:
[1] = molecular target: GTPase KRas (Homo sapiens) (UniProt P01116); assay: Binding affinity to N-terminal His10-tagged wild-type human KRAS (1 to 169 residues) expressed in Escherichia coli assessed as binding at 1:1 stoichiometry at 100 uM incubated for 1 hr by native MS analysis
[2] = tested on: Tyrosine-protein kinase ABL1 (Homo sapiens), P00519 [Q252H]; assay: Inhibition of nonphosphorylated ABL1 Q252H mutant (unknown origin) assessed as residual activity at 100 nM by KINOMEscan analysis relative to control
[3] = molecular target: Cyclin-dependent kinase 3 (Homo sapiens) (UniProt Q00526); assay: Inhibition of CDK3 (unknown origin) assessed as residual activity at 100 nM by KINOMEscan analysis relative to control
[4] = molecular target: Macrophage colony-stimulating factor 1 receptor (Homo sapiens) (UniProt P07333); assay: Inhibition of autoinhibited CSF1R (unknown origin) assessed as residual activity at 100 nM by KINOMEscan analysis relative to control
[5] = molecular target: Casein kinase II subunit alpha' (Homo sapiens) (UniProt P19784); assay: Inhibition of CSNK2A2 (unknown origin) assessed as residual activity at 100 nM by KINOMEscan analysis relative to control
[6] = molecular target: T1, Dual specificity mitogen-activated protein kinase kinase 5 (Homo sapiens) (UniProt Q13163); assay: Inhibition of MEK5 (unknown origin) assessed as residual activity at 100 nM by KINOMEscan analysis relative to control
T1 sequence (whole entry): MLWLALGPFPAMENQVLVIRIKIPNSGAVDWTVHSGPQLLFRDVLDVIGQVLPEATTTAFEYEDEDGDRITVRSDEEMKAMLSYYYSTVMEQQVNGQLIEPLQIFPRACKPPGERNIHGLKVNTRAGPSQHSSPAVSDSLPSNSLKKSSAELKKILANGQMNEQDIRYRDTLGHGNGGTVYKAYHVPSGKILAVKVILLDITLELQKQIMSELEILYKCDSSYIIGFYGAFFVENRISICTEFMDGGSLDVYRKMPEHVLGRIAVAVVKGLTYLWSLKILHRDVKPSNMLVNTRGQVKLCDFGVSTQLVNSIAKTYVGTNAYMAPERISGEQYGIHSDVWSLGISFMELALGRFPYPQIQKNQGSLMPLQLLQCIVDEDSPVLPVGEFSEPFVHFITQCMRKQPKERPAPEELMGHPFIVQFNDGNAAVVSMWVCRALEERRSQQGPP

[7] = molecular target: T2, Serine/threonine-protein kinase NLK (Homo sapiens) (UniProt Q9UBE8); assay: Inhibition of NLK (unknown origin) assessed as residual activity at 100 nM by KINOMEscan analysis relative to control
T2 sequence (whole entry): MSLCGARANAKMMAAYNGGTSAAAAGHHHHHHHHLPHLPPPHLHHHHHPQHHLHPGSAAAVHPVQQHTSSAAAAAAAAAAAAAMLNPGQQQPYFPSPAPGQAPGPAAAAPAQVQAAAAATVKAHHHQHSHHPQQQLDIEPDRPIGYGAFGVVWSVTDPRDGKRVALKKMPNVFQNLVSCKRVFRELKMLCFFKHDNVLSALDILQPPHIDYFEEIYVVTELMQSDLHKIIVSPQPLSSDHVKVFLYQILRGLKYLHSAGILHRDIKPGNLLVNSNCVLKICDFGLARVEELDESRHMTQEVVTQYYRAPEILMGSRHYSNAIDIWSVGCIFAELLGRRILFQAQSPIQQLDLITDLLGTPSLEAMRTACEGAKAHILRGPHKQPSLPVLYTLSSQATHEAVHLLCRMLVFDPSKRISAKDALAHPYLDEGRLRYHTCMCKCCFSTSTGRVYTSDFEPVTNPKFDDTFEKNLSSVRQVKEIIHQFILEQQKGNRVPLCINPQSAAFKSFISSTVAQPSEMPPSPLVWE

[8] = molecular target: Phosphatidylinositol 4,5-bisphosphate 3-kinase catalytic subunit alpha isoform (Homo sapiens) (UniProt P42336); assay: Inhibition of PIK3CA (unknown origin) assessed as residual activity at 100 nM by KINOMEscan analysis relative to control
[9] = tested on: Phosphatidylinositol 4,5-bisphosphate 3-kinase catalytic subunit alpha isoform (Homo sapiens), P42336 [E545A]; assay: Inhibition of PIK3CA E545A mutant (unknown origin) assessed as residual activity at 100 nM by KINOMEscan analysis relative to control
[10] = molecular target: T3, Serine/threonine-protein kinase D1 (Homo sapiens) (UniProt Q15139); assay: Inhibition of PRKD1 (unknown origin) assessed as residual activity at 100 nM by KINOMEscan analysis relative to control
T3 sequence (whole entry): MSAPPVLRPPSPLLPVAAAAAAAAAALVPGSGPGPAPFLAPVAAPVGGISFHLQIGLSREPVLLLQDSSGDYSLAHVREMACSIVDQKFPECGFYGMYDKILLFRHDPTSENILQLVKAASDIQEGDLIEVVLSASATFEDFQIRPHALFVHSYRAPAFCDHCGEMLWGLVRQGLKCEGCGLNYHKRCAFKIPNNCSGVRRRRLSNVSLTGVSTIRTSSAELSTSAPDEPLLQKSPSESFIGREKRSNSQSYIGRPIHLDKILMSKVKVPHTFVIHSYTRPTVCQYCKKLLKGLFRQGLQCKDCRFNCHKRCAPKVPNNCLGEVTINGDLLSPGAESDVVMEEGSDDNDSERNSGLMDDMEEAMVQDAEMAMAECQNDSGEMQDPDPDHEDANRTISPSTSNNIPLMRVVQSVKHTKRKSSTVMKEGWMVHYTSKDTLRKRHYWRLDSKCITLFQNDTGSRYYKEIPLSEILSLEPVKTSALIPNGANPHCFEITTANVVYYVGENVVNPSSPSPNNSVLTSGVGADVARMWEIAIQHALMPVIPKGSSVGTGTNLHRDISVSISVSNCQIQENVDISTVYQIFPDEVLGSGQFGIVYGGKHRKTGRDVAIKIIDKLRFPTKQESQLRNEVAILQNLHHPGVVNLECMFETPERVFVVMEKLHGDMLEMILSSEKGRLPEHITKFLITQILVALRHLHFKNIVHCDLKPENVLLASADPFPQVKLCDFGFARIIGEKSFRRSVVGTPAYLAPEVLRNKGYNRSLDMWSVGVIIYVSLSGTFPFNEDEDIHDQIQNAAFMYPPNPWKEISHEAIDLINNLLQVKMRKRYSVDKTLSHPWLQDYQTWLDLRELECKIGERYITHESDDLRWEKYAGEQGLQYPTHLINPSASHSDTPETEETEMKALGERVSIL

[11] = molecular target: Ribosomal protein S6 kinase alpha-6 (Homo sapiens) (UniProt Q9UK32); assay: Inhibition of C-terminal RSK4 kinetic domain 2 (unknown origin) assessed as residual activity at 100 nM by KINOMEscan analysis relative to control
[12] = molecular target: Dual specificity testis-specific protein kinase 1 (Homo sapiens) (UniProt Q15569); assay: Inhibition of TESK1 (unknown origin) assessed as residual activity at 100 nM by KINOMEscan analysis relative to control

Compound: COc1cc2ncnc(N[C@H](C)c3cccc4ccccc34)c2cc1OC
- Activity [1]: inactive
- Activity [2]: 100%
- Activity [3]: 95%
- Activity [4]: 96%
- Activity [5]: 87%
- Activity [6]: 83%
- Activity [7]: 82%
- Activity [8]: 66%
- Activity [9]: 93%
- Activity [10]: 84%
- Activity [11]: 86%
- Activity [12]: 73%

— ChEMBL document CHEMBL5678818, “Discovery of potent SOS1 inhibitors that block RAS activation via disruption of the RAS-SOS1 interaction” (Proc Natl Acad Sci U S A, 2019)
